Experimental findings from US20240083839A1, “COMPOSITIONS AND METHODS FOR TREATING NEURODEGENERATIVE DISEASES AND DISORDERS” (The Regents of the University of California, priority 2020, published 2024) are described below.

What is called EC50 is the concentration at which the effect is half-maximal. A word on the IC50: it is the concentration at which inhibition is half-maximal.

Data set [1] has as its system ApoE4 and RNA polymerase II binding to the SirT1 promoter. Kind of data set: ChIP and real time PCR of SirT1 promoter binding in N2a-E4 cells. It counts as cell-based, mouse. The settings on record: 6 hour treatment (A03 50 μM), versus DMSO. As to the method: Cells were then fixed with formaldehyde, lysed with SDS buffer, and sonicated using a temperature-controlled Epishear sonication platform at −20° C. to obtain DNA fragments between 200-1000 bp. An EZ-ChIP kit (EMD Millipore) was then used for chromatin immunoprecipitation using anti-ApoE4 mAb (Novus Biologicals) and anti-RNA Polymerase II mAb (Millipore) antibodies. After ChIP crosslinks were reversed and purified ChIP DNA was then analyzed by real time quantitative PCR using SYBR green master mix (Thermo) in a CFX Connect Real-Time PCR Detection System (Bio-Rad) using primers to amplify the ApoE4 binding site in the mouse SirT1 promoter: 5′[…]3′ and 5′[…]3′ (amplicon size of 125 bp). The Signals from each sample were normalized with signal of the input followed by the delta-delta-Ct method and fold change calculated with respect to the vehicle (DMSO).

In data set [2] the test system is PRMT8 protein levels in E4-N2a cells. In words: Immunoblot of PRMT8 protein levels in E4-N2a cells. It counts as cell-based, murine. The settings on record: 10 μM. From the text:
(§1) Due both the sequence homology and functional similarity of PRMT family members, in follow-up experiments PRMT 1, 4, and 8 inhibitors as well as assays for inhibition by those PRMTs were used. […] This profile may be due to its binding to an allosteric site on the PRMT8 enzyme and needs further kinetic analysis. […] The mode & inhibition kinetics to be investigated in the renewal grant.
In general terms: In western blotting, separated proteins are transferred to a membrane and probed.

For data set [3], the system named is SirT1 mRNA. In words: SirT1 mRNA level in N2a-E4 cells. It is filed as cell-based, mouse. The settings on record: 10 hour time point.
The test system of data set [4] is SirT1 levels in N2a-E4 cells. In words: SirT1 levels by AlphaLISA in ApoE4-transfected N2a cells. It is filed as cell-based, murine. In a few lines:
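SirT1 enhancers screened by AlphaLISA of SirT1 protein in murine N2a neuroblastoma cells stably transfected with ApoE4. E4-AD mice dosed orally at 40 mkd (20 mg/kg BID) for 56 days, then cognition tested by Novel Object Recognition.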
(In general: Alpha assays give light when donor and acceptor beads are brought close together.)

In data set [5] the target is PRMT1 (Homo sapiens, UniProt Q99873). Kind of data set: Cell-free PRMT enzyme activity assay, PRMT1. It is filed as biochemical. Particulars: A03 at 5 μM. The text has this:
Due both the sequence homology and functional similarity of PRMT family members, in follow-up experiments PRMT 1, 4, and 8 inhibitors as well as assays for inhibition by those PRMTs were used. […] The mode & inhibition kinetics to be investigated in the renewal grant.

Data set [6] has as its target PRMT8 (Homo sapiens, UniProt Q9NR22). Kind of data set: Cell-free PRMT enzyme activity assay, PRMT8. It counts as biochemical. Particulars: for PRMT8 inhibition: A03 at 5 μM.
Text: as §1
Testing of additional A03 analogs are ongoing. For affinity purification, DDL215 that was used through clicking to beads. […] An initial correlation between cell-free PRMT8 inhibition and neuronal SirT1 enhancement (in cells) at 5 μM was seen (FIG. 10B).

For data set [7], the target named is T1, PRMT4 (Homo sapiens, UniProt Q86X55).
T1 sequence (Q86X55 1-608): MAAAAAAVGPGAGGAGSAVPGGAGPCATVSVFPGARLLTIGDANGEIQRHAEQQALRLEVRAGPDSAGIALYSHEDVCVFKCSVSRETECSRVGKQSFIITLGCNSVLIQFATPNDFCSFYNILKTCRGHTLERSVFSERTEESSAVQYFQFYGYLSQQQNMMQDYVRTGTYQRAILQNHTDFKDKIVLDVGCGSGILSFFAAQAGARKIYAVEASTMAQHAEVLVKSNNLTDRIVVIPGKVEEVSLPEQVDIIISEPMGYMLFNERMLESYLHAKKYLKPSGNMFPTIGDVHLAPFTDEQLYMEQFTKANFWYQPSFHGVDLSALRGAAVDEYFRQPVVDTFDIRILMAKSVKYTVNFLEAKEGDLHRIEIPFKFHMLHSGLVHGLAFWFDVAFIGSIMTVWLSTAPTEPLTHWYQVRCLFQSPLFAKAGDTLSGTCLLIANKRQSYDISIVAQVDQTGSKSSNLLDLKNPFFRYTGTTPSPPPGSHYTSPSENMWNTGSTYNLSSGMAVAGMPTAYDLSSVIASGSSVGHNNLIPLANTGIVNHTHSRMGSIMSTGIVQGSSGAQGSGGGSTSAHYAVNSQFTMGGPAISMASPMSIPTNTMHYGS
In words: Cell-free PRMT enzyme activity assay, PRMT4. It is filed as biochemical. Particulars: A03 at 5 μM.
Text: as §1

Data set [8] concerns SirT1 levels in SH-SY5Y cells. In words: SirT1 in SH-SY5Y cells transiently transfected with ApoE4. It counts as cell-based, human.
Data set [9] in a line: PAMPA. On the technique in general: In PAMPA a lipid-coated filter parts donor from acceptor wells.
Data set [10] relates to E4-AD mice. In words: Oral treatment of ApoE4-expressing AD model mice (NOR, brain SirT1). Particulars: ApoE4:5×FAD-TR transgenic mice. It is filed as in vivo, mouse. The procedure:
Prompted by the emerging importance of the associations between ApoE4 and the expression/protein levels of SirT1, high-throughput screening (HTS) of the UCLA compound library was performed using AlphaLISA to detect SirT1 levels in murine neuroblastoma cells stably transfected with ApoE4 (E4-N2a) to identify SirT1 enhancers. […] In the in vivo study, mice were treated orally at 40 mkd (20 mg/kg BID) for 56 days and underwent assessment of cognition in the Novel Object Recognition (NOR) testing paradigm.

Structures are written as SMILES. “And” between values parts separate entries of the source, which are not always exact repeats. Equal values may be shown once.

Sequence of PRMT8 (Q9NR22 whole entry, species assumed): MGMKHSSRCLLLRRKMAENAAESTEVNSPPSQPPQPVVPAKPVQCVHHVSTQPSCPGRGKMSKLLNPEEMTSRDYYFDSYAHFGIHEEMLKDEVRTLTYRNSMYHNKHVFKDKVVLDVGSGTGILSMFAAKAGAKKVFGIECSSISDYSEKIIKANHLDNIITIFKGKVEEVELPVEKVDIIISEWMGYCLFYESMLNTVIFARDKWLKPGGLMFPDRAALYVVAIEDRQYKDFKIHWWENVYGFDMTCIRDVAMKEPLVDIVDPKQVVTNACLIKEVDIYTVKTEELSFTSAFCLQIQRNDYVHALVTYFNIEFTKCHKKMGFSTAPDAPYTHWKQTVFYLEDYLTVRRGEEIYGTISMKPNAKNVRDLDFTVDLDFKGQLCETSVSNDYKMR
Sequence of PRMT1 (Q99873 whole entry, species assumed): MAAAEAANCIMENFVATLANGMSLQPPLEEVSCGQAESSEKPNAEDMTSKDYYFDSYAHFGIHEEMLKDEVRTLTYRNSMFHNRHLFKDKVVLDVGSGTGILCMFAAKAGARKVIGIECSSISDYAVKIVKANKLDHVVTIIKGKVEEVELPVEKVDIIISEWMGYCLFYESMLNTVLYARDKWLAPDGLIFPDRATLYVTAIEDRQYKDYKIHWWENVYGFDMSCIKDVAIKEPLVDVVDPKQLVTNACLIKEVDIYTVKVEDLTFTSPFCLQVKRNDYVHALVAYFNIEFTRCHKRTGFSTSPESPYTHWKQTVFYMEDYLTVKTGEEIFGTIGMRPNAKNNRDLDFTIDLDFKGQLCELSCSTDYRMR

Turning to `CC(N)C(=O)OC(C)(C)Cc1ccc(Cl)cc1` (stereo not drawn) [A03, alaproclate], in data set [1], the “ApoE4 binding to the SirT1 promoter” value is “pronounced decrease” and the “RNA polymerase binding to the SirT1 promoter” value is “increased binding”. Moreover, in [2], the PRMT8 protein levels entry was “does not alter PRMT8 protein levels”. Besides, the “SirT1 mRNA level higher than DMSO control” value in data set [3] is 12%. For the same molecule, in data set [4], the “SirT1 SOμM” value is “C (C = 100% increase versus control)” and the “SirT1 SμM” value is given as “A (A >20%)”. Also, in data set [4] (Mus musculus, E4-N2a cells, AlphaLISA, read-out: SirT1 increase EC50), the concentration giving a half-maximal response (EC50) is about 2300 nM. Also, the SirT1 increase result in data set [4] (N2a-E4 cells) was “increased SirT1 in a dose dependent fashion”. In addition, the PRMT1 inhibition result in [5] is listed as “not PRMT1 or 4”. The “PRMT8 inhibition, ranking” value in data set [6] (cell-free assay, 0.25 μM) is “greatest inhibition”. In addition, the PRMT8 inhibition result in data set [6] (cell-free assay) was “inhibit PRMT8”. The concentration for half-maximal inhibition (IC50) in data set [6] (cell-free assay, read-out: PRMT8 inhibition IC50) is about 125 nM. Also, the “dose at maximum of PRMT8 inhibition dose response” value in [6] (hormetic profile, plateau up to 10 μM) is 0.25 µM. In addition, the PRMT4 inhibition entry in [7] is reported as “not PRMT1 or 4”. The SirT1 increase entry in data set [8] is “SirT1 increases similar to those seen in the E4-N2a cells”. The PAMPA in data set [9] is 3.9 and 4.04.
On to `CC(N)C(=O)OC(C)(C)Cc1ccncc1` (stereo not drawn) [MP48], for which, in [1], the “ApoE4 binding to the SirT1 promoter” value is given as “decreased ApoE4” and the “RNA polymerase binding to the SirT1 promoter” value is “increased RNA polymerase binding”. For the same molecule, the “SirT1 mRNA levels in the brain” value in [10] is listed as “increase SirT1 mRNA levels”.
As for `CC(C)(Cc1ccc(Cl)cc1)NC(=O)C(C)(C)N` [MP-29, 2-amino-N-(1-(4-chlorophenyl)-2-methylpropan-2-yl)-2-methylpropanamide], in [4], the “SirT1 SOμM” value is reported as “a, a (a <250%)” and the “SirT1 SμM” value is recorded as “a, a (a <250%)”. The same molecule registered a PAMPA in data set [9] of 2.1.
For `CC(N)C(=O)OC(C)(C)Cc1ccccc1` (stereo not drawn) [MP-02, 2-methyl-1-phenylpropan-2-yl 2-aminopropanoate], in data set [4], the “SirT1 SOμM” value is “A, A (A >20%)” and the “SirT1 SμM” value is given as “A, A (A >20%)”. Further, the PAMPA in data set [9] is on record as 3.17.
With `CC(C)CC(N)C(=O)OC(C)(C)Cc1ccc(Cl)cc1` (stereo not drawn) [MP-05, 1-(4-chlorophenyl)-2-methylpropan-2-yl 2-amino-4-methylpentanoate], in data set [4], the “SirT1 SOμM” value is “B (B >50%)” and the “SirT1 SμM” value was “A (A >20%)”. Also, in data set [9], the PAMPA is listed as 5.63.
Regarding `CC(C)Oc1ccc(-c2c[nH]cc2CN(C)CCN)cc1` [MS23], in data set [6] (cell-free assay), the PRMT8 inhibition result is “inhibits all 3 enzymes”. Moreover, the PRMT4 inhibition entry in [7] is “inhibits all 3 enzymes”.
As for `CC(N)C(=O)NC(C)(C)Cc1ccc(F)c(F)c1` (stereo not drawn) [MP-22, -amino-N-(1-(3,4-difluorophenyl)-2-methylpropan-2-yl)propanamide], in data set [4], the “SirT1 SOμM” value was “C (C = 100% increase versus control)” and the “SirT1 SμM” value is recorded as “A (A >20%)”. The same molecule registered a PAMPA in data set [9] of 1.7.
